From paper PMC6930659, “Antiprotozoal Activity of Turkish Origanum onites Essential Oil and Its Components” (Molecules, 2019)
In brackets after ≈: the same amount, converted by molar mass.

Columns and labels:
[1] = test system: Trypanosoma brucei rhodesiense STIB 900; test: In vitro assay for Trypanosoma brucei rhodesiense (resazurin); format: cell-based; conditions: Trypanosoma brucei; STIB 900 blood stream forms, 72 h; means of two independent determinations ± deviation from the mean; read-out: IC50 Trypanosoma brucei rhodesiense
Procedure: Trypanosoma brucei rhodesiense STIB 900 strain, isolated in 1982 from a human patient in Tanzania and, after several mouse passages, cloned and adapted to axenic culture conditions, was used in this assay. Minimum essential medium (50 μL) supplemented with 25 mM HEPES, 1 g/L additional glucose, 1% MEM non-essential amino acids (100×), 0.2 mM 2-mercaptoethanol, 1 mM Na-pyruvate, and 15% heat inactivated horse serum was added to each well of a 96 well microtiter plate. Serial drug dilutions of seven 3-fold dilution steps covering a range from 90 to 0.123 μg/mL were prepared, and then 4 × 10^4 blood stream forms of T. b. rhodesiense STIB 900 in 50 μL were added to each well and the plate was incubated at 37 °C under a 5% CO2 atmosphere for 72 h. Resazurin solution (resazurin, 12.5 mg in 100 mL double-distilled water) (10 μL) was then added to each well and incubated for a further 2–4 h. At the end of the assay, the plates were read with a Spectramax Gemini XS microplate fluorometer (Molecular Devices Cooperation, Sunnyvale, CA, USA) using an excitation wavelength of 536 nm and an emission wavelength of 588 nm. Data were analyzed using the microplate reader software Softmax Pro (Molecular Devices Cooperation, Sunnyvale, CA, USA). Melarsoprol was used as standard drug.

[2] = test system: T. cruzi Tulahuen strain C2C4; test: In vitro assay for Trypanosoma cruzi in L-6 cells (β-galactosidase/CPRG); format: cell-based; conditions: Trypanosoma cruzi, L6; Tulahuen C2C4 in L-6 cells, 96 h; highest concentration tested 90 μg/mL; means of two determinations ± deviation
Procedure: Rat skeletal myoblasts (L-6 cells) were seeded in 96 well microtiter plates (2000 cells/well) in 100 μL RPMI 1640 medium with 10% FBS and 2 mM L-glutamine for 24 h. After that, the medium was removed and replaced by 100 μL per well containing 5000 trypomastigote forms of T. cruzi Tulahuen strain C2C4, containing the β-galactosidase (Lac Z) gene. The medium was removed from the wells after 48 h, and replaced with 100 μL fresh medium with or without a serial drug dilution of seven 3-fold dilution steps covering a range from 90 to 0.123 μg/mL. After 96 h of incubation, the plates were inspected under an inverted microscope to assure growth of the controls and sterility, after which the substrate CPRG/Nonidet ([…]) was added to all wells. A color reaction developed within 2–6 h and could be read photometrically at 540 nm. Data were transferred into the graphic program Softmax Pro (Molecular Devices Cooperation, Sunnyvale, CA, USA) and the IC50 values were calculated from the sigmoidal dose response curves. Benznidazole was the reference drug.

[3] = test system: L. donovani (strain MHOM/ET/67/L82) amastigotes; test: In vitro assay for Leishmania donovani axenic amastigotes (resazurin); format: cell-based; conditions: axenic amastigotes, 72 h, means of two determinations ± deviation, read-out: IC50 Leishmania donovani
Procedure: Amastigotes of L. donovani (strain MHOM/ET/67/L82) were grown in axenic culture at 37 °C in SM medium at pH 5.4 supplemented with 10% heat-inactivated FBS under an atmosphere of 5% CO2. Culture medium (100 μL) with 10^5 amastigotes from axenic culture with or without a serial drug dilution was seeded in 96 well microtiter plates. Serial drug was prepared covering a range of dilutions from 90 to 0.123 μg/mL. After 72 h of incubation, the plates were inspected under an inverted microscope to assure growth of the controls and sterile conditions. Subsequently, 10 μL resazurin solution (12.5 mg resazurin dissolved in 100 mL double-distilled water) was added to each well and the plates were incubated for another 2 h. The plates were then read with a Spectramax Gemini XS microplate fluorometer (Molecular Devices Cooperation, Sunnyvale, CA, USA) using an excitation wavelength of 536 nm and an emission wavelength of 588 nm. Data were analyzed using the software Softmax Pro (Molecular Devices Cooperation, Sunnyvale, CA, USA). A decrease of fluorescence (=inhibition) was expressed as percentage of the fluorescence of control cultures and plotted against the drug concentrations. From the sigmoidal inhibition curves, the IC50 values were calculated. Miltefosine was used as a reference drug.

P. falciparum K1 strain = test: In vitro assay for Plasmodium falciparum ([3H]-hypoxanthine incorporation); format: cell-based; conditions: K1 strain (chloroquine- and pyrimethamine-resistant), erythrocytic stages, means of two determinations ± deviation, read-out: IC50 Plasmodium falciparum
Procedure: Activity against the erythrocytic stages of P. falciparum was determined using an in vitro modified [^3H]-hypoxanthine incorporation assay, using the chloroquine- and pyrimethamine-resistant K1 strain [68]. Compounds were dissolved in DMSO at 10 mg/mL and further diluted in medium before added to parasite cultures incubated in RPMI 1640 medium without hypoxanthine, supplemented with HEPES (5.94 g/l), NaHCO3 (2.1 g/L), neomycin (100 U/mL), AlbumaxR (5 g/L), and washed human red cells A+ at 2.5% haematocrit (0.3% parasitaemia). Serial drug dilutions of seven 3-fold dilution steps covering a range from 90 to 0.123 μg/mL were prepared. The 96 well plates were incubated in a humidified atmosphere at 37 °C; 4% CO2, 3% O2, 93% N2. After 48 h 50 μL of ^3H-hypoxanthine (=0.5 μCi) was added to each well of the plate. The plates were incubated for a further 24 h under the same conditions. The plates were then harvested with a Betaplate™ cell harvester (Wallac, Zurich, Switzerland), and the red blood cells transferred onto a glass fiber filter then washed with distilled water. The dried filters were inserted into a plastic foil with 10 mL of scintillation fluid, and counted in a Betaplate™ liquid scintillation counter (Wallac, Zurich, Switzerland). […] IC50 values were calculated from the sigmoidal inhibition curves using Microsoft Excel. Chloroquine was used as positive control drug.

[4] = In vitro assay for cytotoxicity on mammalian cells (resazurin); format: cell-based, rat; conditions: rat skeletal myoblasts, 72 h; means of two determinations ± deviation; read-out: IC50 Cytotoxicity L6 cells
Procedure: Assays were performed in 96 well microtiter plates (4 × 10^4 L6 cells/well), each well containing 100 μL of RPMI 1640 medium supplemented with 1% L-glutamine (200 mM) and 10% FBS. L6 cells are a primary cell line derived from rat skeletal myoblasts. Serial drug dilutions of seven 3-fold dilution steps covering a range from 90 to 0.123 μg/mL were prepared. After 72 h of incubation, the plates were inspected under an inverted microscope to assure growth of the controls and sterile conditions. Resazurin solution (10 μL) (12.5 mg resazurin in 100 mL double-distilled water) was then added to each well and the plates incubated for another 2 h. The plates were then read with a Spectramax Gemini XS microplate fluorometer (Molecular Devices Cooperation, Sunnyvale, CA, USA) using an excitation wavelength of 536 nm and an emission wavelength of 588 nm. Data were analyzed using the microplate reader software Softmax Pro (Molecular Devices Cooperation, Sunnyvale, CA, USA). From the sigmoidal inhibition curves, the IC50 values were calculated. Podophyllotoxin was the positive control.

T. evansi = test system: T. evansi; design: method as in PMID 26773165; conditions: cited from earlier work

SMILES: CC1=CC=C(C(C)C)CC1 [α-Terpinene]
- IC50 [1]: 3.1 ± 1.6 µg/mL (≈ 22.8 µM)
- IC50 [2]: 49.1 ± 7.3 µg/mL (≈ 360 µM)
- IC50 [3]: 10.5 ± 1.7 µg/mL (≈ 77.1 µM)
- IC50 (P. falciparum K1 strain): 3.7 ± 1.5 µg/mL (≈ 27.2 µM)
- IC50 [4]: 84.7 ± 4.3 µg/mL (≈ 622 µM)
- animal longevity of T. evansi-infected mice (in words) (T. evansi): extend animal longevity
